Data from patent publication US11141406B2, “Pharmaceutical compounds” (REVIRAL LIMITED, priority 2017, dated 2021).

Key:
RSV A2 VR-1540 = experiment: RSV plaque reduction assay, typical conditions (HEp-2 cells); format: cell-based; details: human respiratory syncytial virus; for IC90: typical protocol, read-out: RSV Plaque Reduction Assay Strain A2 IC90; for IC50: †: typical protocol, n = 1, read-out: RSV Plaque Reduction Assay Strain A2 IC50
Method: The plaque reduction assay was typically performed as follows. HEp-2 cells (ATCC, CCL23) were passaged in flasks and seeded in 96-well plates in DMEM containing antibiotics and supplemented with 10% FBS. During inoculation and subsequent incubation, cells were cultured in DMEM containing 3% FBS. 100 plaque forming unit (PFU)/well of RSV (RSV A2 VR-1540) was mixed with ten serial dilutions of compound. Subsequently, 100 μL of the virus/compound mixtures was added to confluent HEp-2 cell monolayers. The cells and virus/compound mixtures were incubated at 35° C. in a humidified 5% CO2 incubator for 1 day.
Cells were washed twice with PBS before adding 50% v % v EtOH/MeOH, and then stored at −20° C. On the day of the staining, fixative was first removed from the plates. Plates were washed 3× with PBS. A pre-titrated amount of the primary antibody was added in 60 μL PBS/2% milk powder, and plates incubated for 1 h at rt. The plates were washed 3× with PBS/0.05% Tween20 before addition of goat anti-mouse horse radish peroxidase in 60 μL PBS/2% milk powder, and incubated for 1 h at rt. Following three wash steps with PBS/0.05% Tween20, 60 μL ready-to-use TrueBlue was added and plates were incubated at it for 10-15 min before adding MilliQ water. Plates were washed once with water, incubated for 30-60 min and after removal of water, air-dried in the dark.
(§1) Plates were scanned and analyzed using the Immunospot S6 UV analyzer, which is equipped with BioSpot analysis software for counting immunostained plaques (virospots). Plaque counts were used to calculate % infection relative to the mean of the spot count (SC) in the virus control wells for RSV. IC50/IC90 values were calculated as 50% or 90% reduction in signal, respectively, by interpolation of inhibition curves fitted with a 4-parameter nonlinear regression with a variable slope in GraphPad 5.0 (Prism). Alternatively, where noted the plaque reduction assay was performed as follows. Hep G2 cells (ECACC, 85011430) were passaged in flasks and seeded in 12-well plates in DMEM containing antibiotics and supplemented with 10% FBS, 24 h prior to inoculation. During inoculation and subsequent incubation, cells were cultured in DMEM containing 2% FBS. 75 plaque forming unit (PFU)/well of RSV (RSV A2, 0709161v) was mixed with 8 serial dilutions of compound. Subsequently, 200 μL of the virus/compound mixtures was added to confluent Hep G2 cell monolayers, for a 2 h infection, with manual shaking every 15 min. Infectious supernatant was then removed and replaced with 2 mL of overlay, comprising 4 parts of DMEM+2% FBS and 1 part 4% CMC, with 0.25% DMSO. The cells were incubated at 37° C. in a humidified 5% CO2 incubator for 5 days.

RSV A2, 0709161v = experiment: RSV plaque reduction assay, alternative conditions (Hep G2 cells); format: cell-based; details: human respiratory syncytial virus, HepG2, mean of at least 2 independent experiments, read-out: RSV Plaque Reduction Assay Strain A2 IC50
Method: as §1
Overlay was removed, and cells were washed with PBS before fixing with a mixture of 75% acetone 25% methanol for 3 minutes and replacing with fresh PBS. […] Staining was carried out whilst shaking at 37° C. First the plates were blocked with 500 uL PBS-T/2% milk powder per well, for 1 hr. This was then replaced with 250 uL PBS-T/2% milk powder containing a pre-titrated amount of the primary antibody (ab1128), for 90 min. The plates were washed 3×5 min with PBS-T, before addition of rabbit anti-goat horse radish peroxidase (AP106P) in 250 μL PBS-T/2% milk powder, and incubated for 1 hr. […]
Plates were scanned and analysed using the Immunospot S6 Macro analyzer, which is equipped with BioSpot analysis software for counting immunostained plaques. […]

| SMILES | IC90 (RSV A2 VR-1540) | IC50 (RSV A2 VR-1540) | IC50 (RSV A2, 0709161v) |
| --- | --- | --- | --- |
| CS(=O)(=O)CCCn1c(CN2C(=O)C(F)(F)c3ccccc32)nc2cc(Cl)ccc21 [Compound 5, 1-{[5-Chloro-1-(3-methanesulfonylpropyl)-1H-1,3-benzodiazol-2-yl]methyl}-3,3-difluoro-2,3-dihydro-1H-indol-2-one] | 4.4 nM | 1.4 nM | – |
| CCS(=O)(=O)N1CCC(n2c(CN3C(=O)C(F)(F)c4ccccc43)nc3cc(Cl)ccc32)CC1 [Compound 9, 1-({5-Chloro-1-[1-(ethanesulfonyl)piperidin-4-yl]-1H-1,3-benzodiazol-2-yl}methyl)-3,3-difluoro-2,3-dihydro-1H-indol-2-one] | – | – | 12.6 nM |
| O=C1N(Cc2nc3cc(Cl)ccc3n2C2CCOCC2)c2ccccc2C1(F)F [Compound 10, 1-{[5-Chloro-1-(oxan-4-yl)-1H-1,3-benzodiazol-2-yl]methyl}-3,3-difluoro-2,3-dihydro-1H-indol-2-one] | 53 nM | 6.4 nM | – |
| CC(C)CCn1c(CN2C(=O)C(F)(F)c3ccccc32)nc2cc(CN)ccc21 [Compound 13, 1-{[5-(Aminomethyl)-1-(3-methylbutyl)-1H-1,3-benzodiazol-2-yl]methyl}-3,3-difluoro-2,3-dihydro-1H-indol-2-one] | – | – | 4.1 nM |
